Laboratory results as given in patent publication US10912741B2, “Prevention of liver cancer with safranal-based formulations” (United Arab Emirates University, priority 2019, dated 2021).
Marks after values point to notes of the source that are not given here.

How the values were obtained:
ED-1 (macrophages) = assay: Immunohistochemical staining of liver sections, ED-1 positive cells (macrophages); type: in vivo, albino Wistar rats; settings: mean±SEM, 8 rats
Protocol: The experimental hepatocarcinogenesis model was developed according to a protocol by Espandiaria et al. that was adapted for our purposes. To initiate and promote hepatocarcinogenesis, diethylnitrosamine (DEN) and 2-acetylaminofluorene (2-AAF) were used, respectively. For hepatocarcinogenesis initiation in this model, a single DEN dose (200 mg/kg b.wt.) dissolved in saline was injected intraperitoneally. After initiation, all rats underwent one period of 5-days fasting, as mitotic proliferative stimuli. To promote hepatocarcinogenesis, 2-acetylaminofluorene (2-AAF) was introduced in the form of six daily intragastric doses (30 mg/kg in 1% Tween 80); two weeks after DEN treatment.
Safranal at doses of 25 mg/kg by weight (b.wt.) and 50 mg/kg b.wt, was administrated orally to rats. These doses have been reported to suppress chemically-induced oxidative damage in rats. A total of 40 adult male albino Wistar rats were randomly divided into […] (n=8) and were subjected to different treatments. Group 1 (control) was orally administered distilled water (5 ml/kg b.wt.) throughout the experimental duration and were injected with a single dose of saline. Group 2 (Safranal only) was subjected to a safranal dose (50 mg/kg b.wt.) through oral administration for the duration of the experimental period. Hepatocarcinogenesis was induced by DEN and promoted by 2-AAF, as reported previously, in group 3 (HCC). Rats in protective groups (groups 4-5) were treated with low/high doses of saffron-based safranal suspensions, at the beginning of promotion periods and continued for 12 weeks. The low dosage treatment with safranal consisted of 25 mg/kg b.wt., and the high dosage treatment consisted of 50 mg/kg b.wt. The experimental design is illustrated in FIG. 1.
For immunohistochemical staining, mounted sections were immersed in sodium citrate buffer (0.1 M, pH 6) and placed in a water bath for 15 minutes to unmask antigen epitopes. […] Ten fields were randomly selected to quantify positive cells, in individual samples (400×). […]

[1] = system: caspase-3 and -7 in HepG2 cells; assay: Caspase-3 and -7 assay (Caspase-Glo 3/7); type: cell-based, human; settings: 1 mM, 48 hours
Protocol: HepG2, were cultured in RPMI 1640 medium (HyClone, USA) and 1% of 100 U/ml penicillin and 100 ug/ml streptomycin (Sigma, USA) supplemented with 10% fetal bovine serum (Sigma, USA) at 37° C. in a humidified 5% CO2 atmosphere. Cells were sub-cultured each 4-6 days using trypsin 0.25% (Hyclone, USA).
HepG2 cells were seeded in 96-well plates at the density of 10000 cells/well and grown in 100 uL of complete growth medium. Complete growth medium was replaced by serum-free medium after cells were allowed to attach for 24 hours; after which cells were incubated for at least 12 hours. Cells were incubated for 48 hours after treatment with various concentrations of safranal (1 mM, 0.7 mM, 0.5 mM) prepared from 20 mM stock solution. After incubation period, caspase-3 and -7 activities were measured using Caspase-Glo 3/7 luminescent assay kit according to manufacturer's instruction (Promega, USA).

In the case of `CC1=C(C=O)C(C)(C)CC=C1` [Safranal, 2,6,6-trimethylcyclohexa-1,3-diene-1-carbaldehyde], the ED-1 positive cells (ED-1 (macrophages); HCC (DEN/2-AAF) rats + safranal high dose 50 mg/kg b.wt. oral, 12 weeks) was 49.84 ± 2.28^b positive cells/field, the ED-1 positive cells (ED-1 (macrophages); HCC (DEN/2-AAF) rats + safranal low dose 25 mg/kg b.wt. oral, 12 weeks) was 59.19 ± 2.0^a&b positive cells/field and the ED-1 positive cells (ED-1 (macrophages); safranal alone 50 mg/kg b.wt. oral, no DEN (group 2)) was 44.33 ± 1.52 positive cells/field. For the same molecule, the “caspase-3 and -7 activities” value [1] was “significant increase in caspase-3 and -7 activities”.
